Laboratory results: patent US12049469B2, “Compound and structural body for detecting hydrogen sulfide” (CANON KABUSHIKI KAISHA, priority 2020, dated 2024)

How the values were obtained:
[1] = Fluorescence intensity change of compound solution on addition of sodium sulfide (hydrogen sulfide donor) in phosphate-buffered saline; details: for ΔF0 (0 mM sodium sulfide), amount of change in fluorescence intensity / ΔF (0.2 mM sodium sulfide), amount of change in fluorescence intensity F2−F1: compound 5 μM in 1× phosphate-buffered saline pH 7.4; for ΔF0 (0 mM sodium sulfide), amount of change in fluorescence intensity: 10 minutes; for ΔF (0.2 mM sodium sulfide), amount of change in fluorescence intensity F2−F1: 10 minutes after addition; for ΔF − ΔF0, difference in amount of change in fluorescence intensity in presence or absence of sodium sulfide: compound 5 μM in PBS pH 7.4, 0.2 mM vs 0 mM sodium sulfide; for Sensitivity: grade based on ΔF−ΔF0, A to C acceptable, D unacceptable
Description: The compound 1 was added to 1× phosphate-buffered saline (3 mL, pH 7.4) at a concentration of 5 μM. The fluorescence intensity of the solution was immediately measured with a fluorescence spectrophotometer F-4500 (manufactured by Hitachi High-Technologies Corporation). Sodium sulfide serving as a hydrogen sulfide donor was then added to the solution at 0.2 mM. After standing for 10 minutes, the fluorescence intensity of the solution was measured. The fluorescence intensity before the addition of sodium sulfide was denoted as F1, and the fluorescence intensity 10 minutes after the addition of sodium sulfide was denoted as F2. The amount of change in fluorescence intensity (ΔF) due to the addition of sodium sulfide was calculated using the formula F2−F1. The concentration of sodium sulfide was changed to 0 mM, and the amount of change in fluorescence intensity (ΔF0) of the solution was calculated in the same manner. The difference in the amount of change in fluorescence intensity (ΔF−ΔF0) in the presence or absence of sodium sulfide was calculated.
The evaluation is based on the following criteria in the exemplary embodiments of the present disclosure. A to C are acceptable levels, and D is an unacceptable level.

[2] = Behaviour of detection material in aqueous solution (precipitation, water solubility); assay type: physicochemical
Text: To detect hydrogen sulfide and metabolites in an aqueous specimen, such as a biological sample, the present inventors have examined whether the compound disclosed as a detection material in Non Patent Literature 1 can detect hydrogen sulfide in neutral phosphate-buffered saline.

| Compound | ΔF0 (0 mM sodium sulfide), amount of change in fluorescence intensity [1] | ΔF (0.2 mM sodium sulfide), amount of change in fluorescence intensity F2−F1 [1] | ΔF − ΔF0, difference in amount of change in fluorescence intensity in presence or absence of sodium sulfide [1] | Sensitivity [1] | Precipitate or aggregate formation in solution ([2]; neutral phosphate-buffered saline) | Water solubility (comparison) ([2]; compared with o-methyl fluorescein) |
| --- | --- | --- | --- | --- | --- | --- |
| CN(C)c1ccc(/N=N/c2ccc(C(=O)NCCCOC(=O)/C(C#N)=C/c3ccccc3C(=O)Oc3ccc4c(c3)Oc3cc(O)ccc3C43OC(=O)c4ccccc43)cc2)cc1 (stereo not drawn) [Compound 1] | 1.1 | 42.8 | 41.7 | A (ΔF−ΔF0 is 40 or more) | – | – |
| COC(=O)/C(C#N)=C/c1ccccc1C(=O)Oc1ccc2c(c1)Oc1cc(OC)ccc1C21OC(=O)c2ccccc21 (stereo not drawn) [Compound 2, reference compound] | −0.4 | 11.4 | 11.8 | D (ΔF−ΔF0 is less than 15) | a precipitate or aggregate of the detection material is formed in the solution | – |
| CN(C)c1ccc(/N=N/c2ccc(C(=O)NCCCOC(=O)/C(C#N)=C/c3ccccc3C(=O)Oc3ccc4c(c3)Oc3cc(O)ccc3C43OC(=O)c4cc(NC(=S)NCC(=O)O)ccc43)cc2)cc1 (stereo not drawn) [Compound 3] | 6.8 | 36.9 | 30.1 | B (ΔF−ΔF0 is 25 or more and less than 40) | – | – |
| CN(C)c1ccc(/N=N/c2ccc(C(=O)NCCCOC(=O)/C(C#N)=C/c3ccccc3C(=O)Oc3cc4c(cc3Cl)C3(OC(=O)c5ccccc53)c3cc(Cl)c(O)cc3O4)cc2)cc1 (stereo not drawn) [Compound 4] | 4.9 | 10.3 | 5.4 | D (ΔF−ΔF0 is less than 15) | – | – |
| COCCOCCOCCOCCNC(=S)Nc1ccc2c(c1)C(=O)OC21c2ccc(O)cc2Oc2cc(OC(=O)c3ccccc3/C=C(\C#N)C(=O)OCCCNC(=O)c3ccc(/N=N/c4ccc(N(C)C)cc4)cc3)ccc21 (stereo not drawn) [Compound 5] | 1.2 | 42.3 | 41.1 | A (ΔF−ΔF0 is 40 or more) | – | – |
| CN(C)c1ccc(/N=N/c2ccc(C(=O)NCCCOC(=O)/C(C#N)=C/c3ccccc3C(=O)Oc3cc4c(cc3F)C3(OC(=O)c5ccccc53)c3cc(F)c(O)cc3O4)cc2)cc1 (stereo not drawn) [Compound 6] | 13.3 | 34.0 | 20.7 | C (ΔF−ΔF0 is 15 or more and less than 25) | – | – |
| CN(C)c1ccc(/N=N/c2ccc(C(=O)NCCCOC(=O)/C(C#N)=C/c3ccccc3C(=O)Oc3ccc4c(c3)Oc3cc(O)ccc3C43OC(=O)c4c(Cl)c(Cl)c(Cl)c(Cl)c43)cc2)cc1 (stereo not drawn) [Compound 7] | 2.2 | 8.8 | 6.5 | D (ΔF−ΔF0 is less than 15) | – | – |
| O=C1OC2(c3ccc(O)cc3Oc3cc(O)ccc32)c2ccccc21 [fluorescein] | – | – | – | – | – | higher water solubility than o-methyl fluorescein |
